Measurements from patent publication US4113946A, “Δ^2,3 -1,4-Morpholine-2-carboxylic acid derivatives as antibacterial agents” (Bristol-Myers Company, priority 1977, dated 1978).
Values after ≈ are worked out from the molar mass of the structure shown.

How the values were obtained:
Format in all cases: cell-based
E. coli Juhl A15119 = assay: M.I.C. by tube dilution, E. coli Juhl A15119; conditions: Escherichia coli, JUHLA15119; Table 9, compound of Ex. No.; dilution not given; read-out: M.I.C. E. coli A15119
S. aureus Smith A9537 = assay: M.I.C. by tube dilution, S. aureus Smith A9537; conditions: Staphylococcus aureus, SMITHA9537; Table 9, compound of Ex. No.; serum and dilution not given; read-out: M.I.C. S. aureus A9537
D. pneumoniae A9585 = assay: M.I.C. by tube dilution, D. pneumoniae A9585; conditions: Streptococcus pneumoniae, A9585; Table 9, compound of Ex. No.; serum not given; read-out: M.I.C. D. pneumoniae A9585
Sal. enteritidis A9531 = assay: M.I.C. by tube dilution, Sal. enteritidis A9531; conditions: Salmonella enterica, ENTERITIDIS; Table 9, compound of Ex. No.; dilution not given; read-out: M.I.C. Sal. enteritidis A9531

SMILES | MIC (E. coli Juhl A15119) [µg/mL] | MIC (S. aureus Smith A9537) [µg/mL] | MIC (D. pneumoniae A9585) [µg/mL] | MIC (Sal. enteritidis A9531) [µg/mL]
CC1=C(C(=O)O)N2C(=O)[C@@H](NC(=O)Cc3ccccc3CN)[C@H]2CO1 (relative stereo) [Example 24, 7β-(2-Aminomethylphenylacetamido)-3-methyl-Δ^3 -O-2-isocephem-4-carboxylic acid] | 16 (≈ 46.3 µM) | 0.6 (≈ 1.74 µM) | 0.08 (≈ 0.232 µM) | > 2.5
COc1cccc(OC)c1C(=O)N[C@@H]1C(=O)N2C(C(=O)O)=C(C)OC[C@H]12 (relative stereo) [Example 26, 7β-(2,6-Dimethoxybenzamido)-3-methyl-Δ^3 -O-2-isocephem-4-carboxylic acid] | > 125 | > 125 | 32 (≈ 88.3 µM) | 32 (≈ 88.3 µM)
CC1=C(C(=O)O)N2C(=O)[C@@H](NC(=O)CNC(=N)Cc3ccccc3)[C@H]2CO1 (relative stereo) [Example 28, 7β-[N-(Phenylacetimidoyl)aminoacetamido]-3-methyl-Δ^3 -O-2-isocephem-4-carboxylic acid] | > 125 | 4 (≈ 10.7 µM) | 0.5 (≈ 1.34 µM) | 125 (≈ 336 µM)
CC1=C(C(=O)O)N2C(=O)[C@@H](NC(=O)NCOc3ccccc3)[C@H]2CO1 (relative stereo) [Example 31] | > 125 | 32 (≈ 92.1 µM) | 16 (≈ 46.1 µM) | > 125
CC1=C(C(=O)O)N2C(=O)[C@@H](NC(=O)Cc3ccccc3O)[C@H]2CO1 (relative stereo) [Example 35, 7β-(o-Hydroxyphenylacetamido)-3-methyl-Δ^3-0-2-isocephem-4-carboxylic acid] | > 125 | 0.5 (≈ 1.5 µM) | 0.25 (≈ 0.752 µM) | > 125
CC1=C(C(=O)O)N2C(=O)[C@@H](NC(=O)c3c(-c4ccccc4Cl)noc3C)[C@H]2CO1 (relative stereo) [Example 39, 7β-[3-(o-chlorophenyl)-5-methyl-isoxazol-4-ylcarboxamido]-3-methyl-Δ^3-0-2-isocephem-4-carboxylic acid] | > 125 | > 8 | 8 (≈ 19.1 µM) | > 125
CC1=C(C(=O)O)N2C(=O)[C@@H](NC(=O)C(NC(=O)NC(=O)c3ccccc3)c3ccccc3)[C@H]2CO1 (stereo partly drawn) [Example 25, 7β-(α-Benzoylureidophenylacetamido)-3-methyl-Δ^3 -O-2-isocephem-4-carboxylic acid] | 63 (≈ 132 µM) | 0.6 (≈ 1.25 µM) | 0.3 (≈ 0.627 µM) | 8 (≈ 16.7 µM)
CC1=C(C(=O)O)N2C(=O)[C@@H](NC(=O)[C@H](O)c3ccccc3)[C@H]2CO1 [Example 27, 7β-(D-α-Hydroxyphenylacetamido)-3-methyl-Δ^3 -O-2-isocephem-4-carboxylic acid] | 16 (≈ 48.1 µM) | 2 (≈ 6.02 µM) | 1 (≈ 3.01 µM) | 8 (≈ 24.1 µM)

Now from value to compound:

MIC (E. coli Juhl A15119) [µg/mL] | MIC (S. aureus Smith A9537) [µg/mL] | MIC (D. pneumoniae A9585) [µg/mL] | MIC (Sal. enteritidis A9531) [µg/mL] | SMILES
125 (≈ 395 µM) | 1 (≈ 3.16 µM) | 0.5 (≈ 1.58 µM) | 4 (≈ 12.6 µM) | CC1=C(C(=O)O)N2C(=O)[C@@H](NC(=O)Cc3ccccc3)[C@H]2CO1 (relative stereo) [Example 32, 7β-Phenylacetamido-3-methyl-Δ^3-0-2-isocephem-4-carboxylic acid]
32 (≈ 99.3 µM) | 1 (≈ 3.1 µM) | 0.25 (≈ 0.776 µM) | 2 (≈ 6.2 µM) | CC1=C(C(=O)O)N2C(=O)[C@@H](NC(=O)Cc3cccs3)[C@H]2CO1 (relative stereo) [Example 33, 7β-(2-Thienylacetamido)-3-methyl-Δ^3-0-2-isocephem-4-carboxylic acid]
125 (≈ 471 µM) | 4 (≈ 15.1 µM) | 0.5 (≈ 1.89 µM) | 125 (≈ 471 µM) | CC1=C(C(=O)O)N2C(=O)[C@@H](NC(=O)CC#N)[C@H]2CO1 (relative stereo) [Example 36, 7β-[Cyanoacetamido]-3-methyl-Δ^3-0-2-isocephem-4-carboxylicacid]
> 125 | 125 (≈ 443 µM) | 125 (≈ 443 µM) | > 125 | CCCCC(=O)NC1C(=O)N2C(C(=O)O)=C(C)OCC12 (stereo not drawn) [Example 29, 7β-Valeramido-3-methyl-Δ^3 -O-2-isocephem-4-carboxylic acid]
